{
  "source": "patent US20230399312A1",
  "about": "“SUBSTITUTED PYRIMIDINES AND METHODS OF USE” (THERAVANCE BIOPHARMA R&D IP, LLC, priority 2020, published 2023)",
  "key": {"[1]": {"test_system": "TGF-β-stimulated SMAD3 phosphorylation in BEAS-2B cells", "assay": "Cellular ALK5 potency assay, inhibition of TGF-β stimulated pSMAD3 formation in BEAS-2B cells", "format": "cell-based", "settings": "Homo sapiens, pSMAD3, TGF-β 10 ng/mL, read-out: BEAS2B pIC50 (converted)", "outline": "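Human lung epithelial BEAS-2B cells were pre-treated with compound for 1 h at 37 °C, then stimulated with TGF-β (final 10 ng/mL) for 30 min before lysis. pSMAD3 was quantified by AlphaLISA and pIC50 derived from dose-dependent signal change versus TGF-β-stimulated untreated cells.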"}, "[2]": {"target": "T1, recombinant human ALK5 (TGF-βR1) protein (Homo sapiens, UniProt P36897)", "T1 construct": "purchased Life Technologies PR9075A", "T1 sequence (P36897 34-503)": "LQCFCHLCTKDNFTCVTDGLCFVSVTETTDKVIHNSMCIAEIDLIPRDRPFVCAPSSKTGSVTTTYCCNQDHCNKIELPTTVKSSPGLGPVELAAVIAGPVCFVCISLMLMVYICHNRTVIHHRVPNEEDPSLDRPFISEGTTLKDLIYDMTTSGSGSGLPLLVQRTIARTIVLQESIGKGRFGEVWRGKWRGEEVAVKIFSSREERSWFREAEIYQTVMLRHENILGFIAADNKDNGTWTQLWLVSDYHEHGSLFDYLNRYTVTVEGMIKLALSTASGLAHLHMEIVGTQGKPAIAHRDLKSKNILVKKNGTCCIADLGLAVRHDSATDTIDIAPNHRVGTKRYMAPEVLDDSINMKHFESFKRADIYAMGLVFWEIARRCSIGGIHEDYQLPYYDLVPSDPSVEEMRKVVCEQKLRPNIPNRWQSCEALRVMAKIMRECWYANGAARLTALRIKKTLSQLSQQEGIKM", "assay": "Biochemical ALK5 (TGF-βR1) assay to measure pKi (LANCE Ultra ULight kinase assay)", "settings": "apparent pKi, converted from pIC50 by Cheng-Prusoff", "outline": "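Read-out was LANCE Ultra TR-FRET with a europium anti-phospho-Topo IIα Thr1342 antibody after EDTA quench. Kinase reaction ran 60 min at 37 °C with ATP added from a 125 μM 5× stock, after 60 min compound–enzyme equilibration at room temperature. Values are pKi from Cheng-Prusoff conversion of fitted pIC50.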"}},
  "data": [
    {"smiles": "CCN1CCN(S(=O)(=O)c2ccc(Nc3nccc(Nc4ccnc(-c5cccc(C)n5)n4)n3)cc2)CC1", "note": "[Compound 38, N2-[4-(4-ethylpiperazin-1-yl)sulfonylphenyl]-N4-[2-(6-methyl-2-pyridyl)pyrimidin-4-yl]pyrimidine-2,4-diamine]", "values": [
      {"measurement": "IC50", "setting": "[1]", "result": "25.1 to 158", "unit": "nM"},
      {"measurement": "Ki", "setting": "[2]", "result": "0.0398 to 0.316", "unit": "nM"}
    ]},
    {"smiles": "Cc1cccc(-c2nccc(Nc3ccnc(Nc4cccc(CN5CCSCC5)c4)n3)n2)n1", "note": "[Compound 39, N4-[2-(6-methyl-2-pyridyl)pyrimidin-4-yl]-N2-[3-(thiomorpholinomethyl)phenyl] pyrimidine-2,4-diamine]", "values": [
      {"measurement": "IC50", "setting": "[1]", "result": "25.1 to 158", "unit": "nM"},
      {"measurement": "Ki", "setting": "[2]", "result": "0.0398 to 0.316", "unit": "nM"}
    ]},
    {"smiles": "Cc1cccc(-c2nccc(Nc3ccnc(Nc4csc(C(=O)NC5(CO)CCNC5)c4)n3)n2)n1", "note": "(stereo not drawn) [Compound 40, N-[3-(hydroxymethyl)pyrrolidin-3-yl]-4-[[4-[[2-(6-methyl-2-pyridyl)pyrimidin-4-yl]amino]pyrimidin-2-yl]amino]thiophene-2-carboxamide]", "values": [
      {"measurement": "IC50", "setting": "[1]", "result": "25.1 to 158", "unit": "nM"},
      {"measurement": "Ki", "setting": "[2]", "result": "0.0398 to 0.316", "unit": "nM"}
    ]},
    {"smiles": "Cc1cccc(-c2nccc(Nc3ccnc(Nc4ccc(N5CCNCC5CC(=O)OCC(C)C)cc4)n3)n2)n1", "note": "(stereo not drawn) [Compound 41, isobutyl 2-[1-[4-[[4-[[2-(6-methyl-2-pyridyl)pyrimidin-4-yl]amino]pyrimidin-2-yl]amino]phenyl]piperazin-2-yl]acetate]", "values": [
      {"measurement": "IC50", "setting": "[1]", "result": "25.1 to 158", "unit": "nM"},
      {"measurement": "Ki", "setting": "[2]", "result": "0.0398 to 0.316", "unit": "nM"}
    ]},
    {"smiles": "Cc1cccc(-c2nccc(Nc3ccnc(Nc4nc(C(=O)NCC5CNC5)cs4)n3)n2)n1", "note": "[Compound 42, N-(azetidin-3-ylmethyl)-2-[[4-[[2-(6-methyl-2-pyridyl)pyrimidin-4-yl]amino]pyrimidin-2-yl]amino]thiazole-4-carboxamide]", "values": [
      {"measurement": "IC50", "setting": "[1]", "result": "25.1 to 158", "unit": "nM"},
      {"measurement": "Ki", "setting": "[2]", "result": "≤ 0.0316", "unit": "nM"}
    ]},
    {"smiles": "Cc1cccc(-c2nccc(Nc3ccnc(Nc4ccccc4)n3)n2)n1", "note": "[Compound 43, N4-[2-(6-methyl-2-pyridyl)pyrimidin-4-yl]-N2-phenyl-pyrimidine-2,4-diamine]", "values": [
      {"measurement": "IC50", "setting": "[1]", "result": "≤ 20", "unit": "nM"},
      {"measurement": "Ki", "setting": "[2]", "result": "0.398 to 3.16", "unit": "nM"}
    ]},
    {"smiles": "Cc1cccc(-c2nccc(Nc3ccnc(Nc4nc(C(=O)NC5CNC5)cs4)n3)n2)n1", "note": "[Compound 44, N-(azetidin-3-yl)-2-[[4-[[2-(6-methyl-2-pyridyl)pyrimidin-4-yl]amino]pyrimidin-2-yl]amino]thiazole-4-carboxamide]", "values": [
      {"measurement": "IC50", "setting": "[1]", "result": "25.1 to 158", "unit": "nM"},
      {"measurement": "Ki", "setting": "[2]", "result": "0.0398 to 0.316", "unit": "nM"}
    ]},
    {"smiles": "Cc1cccc(-c2nccc(Nc3ccnc(Nc4cccc(CO)c4)n3)n2)n1", "note": "[Compound 45, [3-[[4-[[2-(6-methyl-2-pyridyl)pyrimidin-4-yl]amino]pyrimidin-2-yl]amino]phenyl]methanol]", "values": [
      {"measurement": "IC50", "setting": "[1]", "result": "≤ 20", "unit": "nM"},
      {"measurement": "Ki", "setting": "[2]", "result": "0.0398 to 0.316", "unit": "nM"}
    ]},
    {"smiles": "Cc1cccc(-c2nccc(Nc3ccnc(Nc4ccc(N5CCN[C@H](CO)C5)cc4)n3)n2)n1", "note": "[Compound 46, [(2S)-4-[4-[[4-[[2-(6-methyl-2-pyridyl)pyrimidin-4-yl]amino]pyrimidin-2-yl]amino]phenyl]piperazin-2-yl]methanol]", "values": [
      {"measurement": "IC50", "setting": "[1]", "result": "25.1 to 158", "unit": "nM"},
      {"measurement": "Ki", "setting": "[2]", "result": "≤ 0.0316", "unit": "nM"}
    ]},
    {"smiles": "CCOC(=O)Cn1cc(-c2ccc(Nc3nccc(Nc4ccnc(-c5cccc(C)n5)n4)n3)cc2)cn1", "note": "[Compound 47, ethyl 2-[4-[4-[[4-[[2-(6-methyl-2-pyridyl)pyrimidin-4-yl]amino]pyrimidin-2-yl]amino]phenyl]pyrazol-1-yl]acetate]", "values": [
      {"measurement": "IC50", "setting": "[1]", "result": "25.1 to 158", "unit": "nM"},
      {"measurement": "Ki", "setting": "[2]", "result": "0.398 to 3.16", "unit": "nM"}
    ]},
    {"smiles": "Cc1cccc(-c2nccc(Nc3ccnc(Nc4ccc(Cl)c(CN5CCNCC5)c4)n3)n2)n1", "note": "[Compound 49, N2-[4-chloro-3-(piperazin-1-ylmethyl)phenyl]-N4-[2-(6-methyl-2-pyridyl)pyrimidin-4-yl]pyrimidine-2,4-diamine]", "values": [
      {"measurement": "IC50", "setting": "[1]", "result": "25.1 to 158", "unit": "nM"},
      {"measurement": "Ki", "setting": "[2]", "result": "0.0398 to 0.316", "unit": "nM"}
    ]},
    {"smiles": "Cc1cccc(-c2nccc(Nc3ccnc(Nc4ccc(CN5CCC(C(=O)OC6CNC6)C5)cc4)n3)n2)n1", "note": "(stereo not drawn) [Compound 50, azetidin-3-yl 1-[[4-[[4-[[2-(6-methyl-2-pyridyl)pyrimidin-4-yl]amino]pyrimidin-2-yl]amino]phenyl]methyl] pyrrolidine-3-carboxylate]", "values": [
      {"measurement": "IC50", "setting": "[1]", "result": "25.1 to 158", "unit": "nM"},
      {"measurement": "Ki", "setting": "[2]", "result": "0.0398 to 0.316", "unit": "nM"}
    ]}
  ]
}
